Experimental data: patent US9193720B2, “Pyridin-3-yl acetic acid derivatives as inhibitors of human immunodeficiency virus replication” (priority 2014, dated 2015)

The compounds below were run on NL-RLuc virus (assay: Inhibition of HIV Replication (NL-RLuc luciferase reporter virus in MT-2 cells)). Conditions: Human immunodeficiency virus 1, MT2, 120 h.
Format: cell-based
Text: Inhibition of HIV Replication:
A recombinant NL-RLuc proviral clone was constructed in which a section of the nef gene from NL4-3 was replaced with the Renilla Luciferase gene. This virus is fully infectious and can undergo multiple cycles of replication in cell culture. In addition, the luciferous reporter provides a simple and easy method for quantitating the extent of virus growth and consequently, the antiviral activity of test compounds. The plasmid pNLRLuc contains the proviral NL-Rluc DNA cloned into pUC18 at the PvuII site. The NL-RLuc virus was prepared by transfection of 293T cells with the plasmid pNLRLuc. Transfections were performed using the LipofectAMINE PLUS kit from Invitrogen (Carlsbad, Calif.) according to the manufacturer and the virus generated was titered in MT-2 cells. For susceptibility analyses, the titrated virus was used to infect MT-2 cells in the presence of compound, and after 5 days of incubation, cells were processed and quantitated for virus growth by the amount of expressed luciferase. Assay media was RPMI 1640 supplemented with 10% heat inactivated fetal bovine serum (FBS), 100 units/ml penicillin G/100 units/ml streptomycin, 10 mM HEPES buffer pH 7.55 and 2 mM L-glutamine. The results from at least 2 experiments were used to calculate the EC50 values. Luciferase was quantitated using the Dual Luciferase kit from Promega (Madison, Wis.). Susceptibility of viruses to compounds was determined by incubation in the presence of serial dilutions of the compound. The 50% effective concentration (EC50) was calculated by using the exponential form of the median effect equation where (Fa)=1/[1+(ED50/drug conc.)^m] (Johnson V A, Byington R T. Infectivity Assay. In Techniques in HIV Research. ed. Aldovini A, Walker B D. 71-76. New York: Stockton Press. 1990).
Compound Cc1nc(C)c([C@H](OC(C)(C)C)C(=O)O)c(N2CCC(C)(C)CC2)c1-c1ccc(OCc2cnc(Cl)s2)cc1 [Example 47, (S)-2-(tert-butoxy)-2-(5-(4-((2-chlorothiazol-5-yl)methoxy)phenyl)-4-(4,4-dimethylpiperidin-1-yl)-2,6-dimethylpyridin-3-yl)acetic acid] has an EC50 of 18 nM. Compound Cc1nc(C)c(CCOc2ccc(-c3c(C)nc(C)c([C@H](OC(C)(C)C)C(=O)O)c3N3CCC(C)(C)CC3)cc2)s1 [Example 48, (S)-2-(tert-butoxy)-2-(4-(4,4-dimethylpiperidin-1-yl)-5-(4-(2-(2,4-dimethylthiazol-5-yl)ethoxy)phenyl)-2,6-dimethylpyridin-3-yl)acetic acid] has an EC50 of 1 nM. For Cc1nc(C)c([C@H](OC(C)(C)C)C(=O)O)c(N2CCC(C)(C)CC2)c1-c1ccc(OCC(C)(C)c2ccc(F)cc2)cc1 [Example 49, (S)-2-(tert-butoxy)-2-(4-(4,4-dimethylpiperidin-1-yl)-5-(4-(2-(4-fluorophenyl)-2-methylpropoxy)phenyl)-2,6-dimethylpyridin-3-yl)acetic acid], the EC50 was 34 nM. With Cc1nc(C)c([C@H](OC(C)(C)C)C(=O)O)c(N2CCC(C)(C)CC2)c1-c1ccc(OCCc2cc(F)c(F)cc2F)cc1 [Example 50, (S)-2-(tert-butoxy)-2-(4-(4,4-dimethylpiperidin-1-yl)-2,6-dimethyl-5-(4-(2,4,5-trifluorophenethoxy)phenyl)pyridin-3-yl)acetic acid] the EC50 was 3 nM. Cc1nc(C)c([C@H](OC(C)(C)C)C(=O)O)c(N2CCC(C)(C)CC2)c1-c1ccc(OCCc2c(F)c(F)cc(F)c2F)cc1 [Example 51, (S)-2-(tert-butoxy)-2-(4-(4,4-dimethylpiperidin-1-yl)-2,6-dimethyl-5-(4-(2,3,5,6-tetrafluorophenethoxy)phenyl)pyridin-3-yl)acetic acid] was tested, and the EC50 was 6 nM. Cc1ccc(CCOc2ccc(-c3c(C)nc(C)c([C@H](OC(C)(C)C)C(=O)O)c3N3CCC(C)(C)CC3)cc2)s1 [Example 52, (S)-2-(tert-butoxy)-2-(4-(4,4-dimethylpiperidin-1-yl)-2,6-dimethyl-5-(4-(2-(5-methylthiophen-2-yl)ethoxy)phenyl)pyridin-3-yl)acetic acid] was tested, and the EC50 was 5 nM. In the case of Cc1noc(C)c1CCOc1ccc(-c2c(C)nc(C)c([C@H](OC(C)(C)C)C(=O)O)c2N2CCC(C)(C)CC2)cc1 [Example 53, (S)-2-(tert-butoxy)-2-(5-(4-(2-(3,5-dimethylisoxazol-4-yl)ethoxy)phenyl)-4-(4,4-dimethylpiperidin-1-yl)-2,6-dimethylpyridin-3-yl)acetic acid], the EC50 is reported as 2 nM. In the case of Cc1n[nH]c(C)c1CCOc1ccc(-c2c(C)nc(C)c([C@H](OC(C)(C)C)C(=O)O)c2N2CCC(C)(C)CC2)cc1 [Example 54, (S)-2-(tert-butoxy)-2-(5-(4-(2-(3,5-dimethyl-1H-pyrazol-4-yl)ethoxy)phenyl)-4-(4,4-dimethylpiperidin-1-yl)-2,6-dimethylpyridin-3-yl)acetic acid], the EC50 is reported as 8 nM. Cc1ccc(-c2c(C)nc(C)c([C@H](OC(C)(C)C)C(=O)O)c2N2CCC(C)(C)CC2)cc1OCc1ccccc1 [Example 55, (S)-2-(5-(3-(benzyloxy)-4-methylphenyl)-4-(4,4-dimethylpiperidin-1-yl)-2,6-dimethylpyridin-3-yl)-2-(tert-butoxy)acetic acid] showed an EC50 of 93 nM. Cc1nc(C)c([C@H](OC(C)(C)C)C(=O)O)c(N2CCC(C)(C)CC2)c1-c1ccc(OCc2ccncc2)cc1 [Example 56, (S)-2-(tert-butoxy)-2-(4-(4,4-dimethylpiperidin-1-yl)-2,6-dimethyl-5-(4-(pyridin-4-ylmethoxy)phenyl)pyridin-3-yl)acetic acid] gave an EC50 of 2 nM. COc1ncc(-c2c(C)nc(C)c([C@H](OC(C)(C)C)C(=O)O)c2N2CCC(C)(C)CC2)cn1 [Example 57, (S)-2-(tert-butoxy)-2-(4-(4,4-dimethylpiperidin-1-yl)-5-(2-methoxypyrimidin-5-yl)-2,6-dimethylpyridin-3-yl)acetic acid] gave an EC50 of 217 nM.
